Measured values as given in patent US20150086719A1, “USE OF […] MARINE WOODBORERS” (Janssen Pharmaceutica, NV, priority 2012, published 2015).

Assays:
Limnoria lignorum = assay: Marine field test according to EN 275: rating of attack on tralopyril impregnated Scots pine sapwood by Limnoria l.; assay type: in vivo; design: key to Rating of attack by Limnoria l. 1st year / Rating of attack by Limnoria l. 2nd year: 0: No destruction No visible tunnel or destruction by marine organisms; Little destruction Tunnels are one or a few number and up to cover 15% of total sample area; Moderate destruction Tunnels cover between 15-25% of total sample area; 3: Violent destruction Tunnels cover between 25-50% of total sample area; 4: Fully destruction Tunnels covered more than 50% of total sample area; —: some samples were destroyed the second year (indicated by ‘-’ in Table 1); settings: for Rating of attack by Limnoria l. 1st year, average / Rating of attack by Limnoria l. 2nd year, average: average of samples, scale 0-4; for Rating of attack by Limnoria l. 1st year, average / Rating of attack by Limnoria l. 1st year: 1 year in seawater; for Rating of attack by Limnoria l. 2nd year, average / Rating of attack by Limnoria l. 2nd year: 2 years in seawater; for Rating of attack by Limnoria l. 1st year / Rating of attack by Limnoria l. 2nd year: single wood samples
Description: (§1) The effectiveness to reduce the presence of marine woodborers in wood situated in a marine environment was determined using the guidelines and recommendations in EN 275: 1992—wood preservatives—determination of the protective effectiveness against marine woodborers.
(§2) Wood Material The wood material used for both control groups (untreated) and test groups was Scots pine sapwood (Pinus sylvestris L.). The size of the wood samples was 25×70×200 mm and all pine specimens were pure sapwood and free from defects.
Full cell Impregnation Procedure: • place specimens into a treatments vessel (e.g. an exsiccator) • pull vacuum until 7 hPa is reached and hold said vacuum for 15 minutes • flood specimens under vacuum with treatment solution until the specimens are completely immersed • release vacuum and make sure that samples stay completely immersed while ambient pressure presses treatment solution into the specimens • leave specimens for further 2 hours immersed in the treatment solution • subsequently remove the specimens from the treatment solution, drain drip off solution for some minutes and place the specimens container on inert supports. • keep specimens in the closed container for 3 days (over weekend) for fixation, subsequently open the lid every day a bit more and remove it completely after 4 days • dry specimens in the open container at room temperature further 3 days
1a) Water Dilutable Formulation (Emulsifiable Concentrate)
Tralopyril dissolved in methanol (1600 ppm and 400 ppm).
1a) water dilutable formulation : 228 g and 846 g a.i./ m^3
1b) solvent based formulation : 1087 g a.i./ m^3
Bay (Gullmar fjord) outside the Kristineberg Marine Research Station, 100 km north of Gothenburg, Sweden.
Temperature and salinity of water: Temperature varies between (18-22)° C. in the summer and −1.5° C. in mid-winter. Salinity varies between 26 g/kg and 34 g/kg. Good oxygen level due to a strong water flow.
Borer activity: there is borer activity all around the year. […] The criterion for failure due to Teredo attack (tunnels covering more than 50% of the specimen area as it appears on the X-ray film) is often fulfilled already within 6 months for untreated control specimens. Maximum “service” life of untreated controls is approximately 1.5 years, after which the samples are often broken to pieces by the autumn storms.
Specimens were hung on nylon-bars (diameter =24 mm) of two ladder-like rigs placed on the sea bottom at 6±0.4 m depth at low tide. The test rigs have heavy concrete foundations and each rig was kept upright by a 50 cm diameter buoy. As a result of the arrangement, the specimens are located at depths varying from 4 m to 6.5 m below water surface during the exposure period.
Gribbles: Limnoria lignorum (present but not very active)

Teredo navalis = assay: Marine field test according to EN 275: rating of attack on tralopyril impregnated Scots pine sapwood by T. navalis; assay type: in vivo; design: key: 0: No destruction No visible tunnel or destruction by marine organisms; Little destruction Tunnels are one or a few number and up to cover 15% of total sample area; Moderate destruction Tunnels cover between 15-25% of total sample area; 3: Violent destruction Tunnels cover between 25-50% of total sample area; 4: Fully destruction Tunnels covered more than 50% of total sample area; —: some samples were destroyed the second year (indicated by ‘-’ in Table 1); settings: single wood samples; tralopyril retention 1087 g/m^3 (solvent based formulation, methanol); 1 year in seawater
Description: as §1, §2
Full cell Impregnation Procedure: • place specimens into a treatments vessel (e.g. an exsiccator) • pull vacuum until 7 hPa is reached and hold said vacuum for 15 minutes • flood specimens under vacuum with treatment solution until the specimens are completely immersed • release vacuum and make sure that samples stay completely immersed while ambient pressure presses treatment solution into the specimens • leave specimens for further 2 hours immersed in the treatment solution • subsequently remove the specimens from the treatment solution, drain drip off solution for some minutes and place the specimens container on inert supports. • keep specimens in the closed container for 3 days (over weekend) for fixation, subsequently open the lid every day a bit more and remove it completely after 4 days • dry specimens in the open container at room temperature further 3 days […]

[1] = tralopyril retention 1087 g/m^3
[2] = tralopyril retention 228 g/m^3 (water dilutable formulation)
[3] = tralopyril retention 846 g/m^3 (water dilutable formulation)
[4] = tralopyril retention 1087 g/m^3 (solvent based formulation, methanol)

`N#Cc1c(-c2ccc(Cl)cc2)[nH]c(C(F)(F)F)c1Br` [tralopyril, 4-bromo-2-(4-chlorophenyl)-5-(trifluoromethyl)-1H-pyrrole-3-carbonitrile] was tested, and the “Rating of attack by Limnoria l. 1st year, average” value (Limnoria lignorum; tralopyril retention 228 g/m^3) was 0.0, the “Rating of attack by Limnoria l. 2nd year, average” value (Limnoria lignorum; tralopyril retention 228 g/m^3) was 0.0 and the “Rating of attack by Limnoria l. 1st year, average” value (Limnoria lignorum; tralopyril retention 846 g/m^3) was 0.0. For the same compound, the “Rating of attack by Limnoria l. 2nd year, average” value (Limnoria lignorum; tralopyril retention 846 g/m^3) was 0.0, the “Rating of attack by Limnoria l. 1st year, average” value (Limnoria lignorum; [1]) was 0.0 and the “Rating of attack by Limnoria l. 2nd year, average” value (Limnoria lignorum; [1]) was 0.0. For the same compound, the “Rating of attack by Limnoria l. 1st year” value (Limnoria lignorum; [2]) was 0, the “Rating of attack by Limnoria l. 2nd year” value (Limnoria lignorum; [2]) was 0 and the “Rating of attack by Limnoria l. 1st year” value (Limnoria lignorum; [3]) was 0. For the same compound, the “Rating of attack by Limnoria l. 2nd year” value (Limnoria lignorum; [3]) was 0, the “Rating of attack by Limnoria l. 1st year” value (Limnoria lignorum; [4]) was 0 and the “Rating of attack by Limnoria l. 2nd year” value (Limnoria lignorum; [4]) was 0. The “Rating of attack by T. navalis 1st year” value (Teredo navalis) was 0.
